Where “and” joins values, the source holds several entries; their conditions need not be identical. Equal values may be shown once. Inconclusive results and toxic doses are left out.
Tested on: L1210 leukemia ip in BDF1 mice, survival T/C
Experiment: NCI In Vivo Anticancer Drug Screen. Data for tumor model L1210 Leukemia (intraperitoneal) in B6D2F1 (BDF1) mice
Conditions: endpoint: mean survival time, higher = longer survival
Outline: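 Read-out is survival time, reported as the treated-group measurement over the vehicle-control measurement.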

**Q.** `O=c1oc(=O)c2ccccc2c2ccccc12` was tested. Which T/C (dose: 100.0 mg/kg/injection, schedule: Q01DX001 (ip), vehicle: other) did it give?
**A.** 93 % of control

**Q.** What about the T/C (dose: 200.0 mg/kg/injection, schedule: Q01DX001 (ip), vehicle: other) of the same molecule?
**A.** 96 % of control

**Q.** What about the T/C (dose: 400.0 mg/kg/injection, schedule: Q01DX001 (ip), vehicle: other) of the same molecule?
**A.** 107 % of control

**Q.** `CCOC(=O)C1=Cc2ccccc2OC1` was tested. Which T/C (dose: 75.0 mg/kg/injection, schedule: Q01DX001 (ip), vehicle: saline) did it give?
**A.** 94 % of control

**Q.** What about the T/C (dose: 150.0 mg/kg/injection, schedule: Q01DX001 (ip), vehicle: saline) of the same molecule?
**A.** 96 % of control

**Q.** And the T/C (dose: 300.0 mg/kg/injection, schedule: Q01DX001 (ip), vehicle: saline)?
**A.** 91 % of control

**Q.** Which T/C (dose: 50.0 mg/kg/injection, schedule: Q04DX002 (ip), vehicle: gum acacia) does the source give for `O=C(c1ccc(O)cc1O)c1ccc(O)cc1O` here?
**A.** 114 % of control

**Q.** And the T/C (dose: 100.0 mg/kg/injection, schedule: Q04DX002 (ip), vehicle: gum acacia)?
**A.** 104 % of control

**Q.** What about the T/C (dose: 200.0 mg/kg/injection, schedule: Q04DX002 (ip), vehicle: gum acacia) of the same molecule?
**A.** 86 % of control

**Q.** `Nc1nc(N)c(C=Nc2ccc(Br)cc2)c(Nc2ccc(Br)cc2)n1` was tested. Which T/C (dose: 50.0 mg/kg/injection, schedule: Q01DX001 (ip), vehicle: alcohol) did it give?
**A.** 100 % of control

**Q.** For `N/N=C(\c1ccccc1)c1ccccn1`, which T/C (dose: 55.0 mg/kg/injection, schedule: Q01DX Z (ip), vehicle: methylcellulose (MC)) is on record?
**A.** 103 % of control

**Q.** What about the T/C (dose: 83.0 mg/kg/injection, schedule: Q01DX Z (ip), vehicle: methylcellulose (MC)) of the same molecule?
**A.** 97 % of control

**Q.** What about the T/C (dose: 125.0 mg/kg/injection, schedule: Q01DX Z (ip), vehicle: methylcellulose (MC)) of the same molecule?
**A.** 90 % of control

**Q.** How did the T/C (dose: 1.5 mg/kg/injection, schedule: Q01DX009 (ip), vehicle: carboxymethylcellulose (CMC)) turn out when `O=C(CN1CC1)Nc1ccc(NC(=O)CN2CC2)cc1` was run?
**A.** 116 % of control and 117 % of control

**Q.** What about the T/C (dose: 7.3 mg/kg/injection, schedule: Q01DX001 (ip), vehicle: carboxymethylcellulose (CMC)) of the same molecule?
**A.** 116 % of control

**Q.** And the T/C (dose: 11.0 mg/kg/injection, schedule: Q01DX009 (ip), vehicle: carboxymethylcellulose (CMC))?
**A.** 168 % of control

**Q.** And the T/C (dose: 11.1 mg/kg/injection, schedule: Q01DX009 (ip), vehicle: carboxymethylcellulose (CMC))?
**A.** 161 % of control

**Q.** What about the T/C (dose: 16.6 mg/kg/injection, schedule: Q01DX009 (ip), vehicle: carboxymethylcellulose (CMC)) of the same molecule?
**A.** 96 % of control and 211 % of control

**Q.** And the T/C (dose: 25.0 mg/kg/injection, schedule: Q01DX001 (ip), vehicle: carboxymethylcellulose (CMC))?
**A.** 152 % of control and 160 % of control

**Q.** And the T/C (dose: 25.0 mg/kg/injection, schedule: Q01DX009 (ip), vehicle: carboxymethylcellulose (CMC))?
**A.** 103 % of control

**Q.** What about the T/C (dose: 37.5 mg/kg/injection, schedule: Q01DX001 (ip), vehicle: carboxymethylcellulose (CMC)) of the same molecule?
**A.** 163 % of control

**Q.** And the T/C (dose: 50.0 mg/kg/injection, schedule: Q01DX001 (ip), vehicle: carboxymethylcellulose (CMC))?
**A.** 151 % of control

**Q.** For `Cc1ccc(C(=O)C[n+]2cccc3ccccc32)c(C)c1`, which T/C (dose: 25.0 mg/kg/injection, schedule: Q04DX002 (ip), vehicle: saline with Tween-80) is on record?
**A.** 93 % of control

**Q.** What does the source list for `O=C(Nc1ccc(C2=NCCN2)cc1)C1CCC(C(=O)Nc2ccc(C3=NCCN3)cc2)CC1` (stereo not given)?
**A.** T/C (dose: 0.46 mg/kg/injection, schedule: Q01DX Z (ip), vehicle: carboxymethylcellulose (CMC)): 103 % of control; T/C (dose: 0.93 mg/kg/injection, schedule: Q01DX Z (ip), vehicle: carboxymethylcellulose (CMC)): 112 % of control; T/C (dose: 3.75 mg/kg/injection, schedule: Q01DX Z (ip), vehicle: carboxymethylcellulose (CMC)): 152 % of control; T/C (dose: 11.0 mg/kg/injection, schedule: Q01DX015 (ip), vehicle: methylcellulose (MC)): 197 % of control; T/C (dose: 15.0 mg/kg/injection, schedule: Q01DX Z (ip), vehicle: carboxymethylcellulose (CMC)): 227 % of control; T/C (dose: 22.0 mg/kg/injection, schedule: Q01DX015 (ip), vehicle: methylcellulose (MC)): 262 % of control; T/C (dose: 30.0 mg/kg/injection, schedule: Q01DX Z (ip), vehicle: carboxymethylcellulose (CMC)): 250 % of control; T/C (dose: 31.0 mg/kg/injection, schedule: Q01DX015 (ip), vehicle: methylcellulose (MC)): 284 % of control; T/C (dose: 45.0 mg/kg/injection, schedule: Q01DX015 (ip), vehicle: methylcellulose (MC)): 335 % of control; T/C (dose: 60.0 mg/kg/injection, schedule: Q01DX Z (ip), vehicle: carboxymethylcellulose (CMC)): 173 % of control; T/C (dose: 62.0 mg/kg/injection, schedule: Q01DX015 (ip), vehicle: methylcellulose (MC)): 229 % of control; T/C (dose: 125.0 mg/kg/injection, schedule: Q01DX015 (ip), vehicle: methylcellulose (MC)): 201 % of control; T/C (dose: 125.0 mg/kg/injection, schedule: Q01DX Z (ip), vehicle: carboxymethylcellulose (CMC)): 102 % of control; T/C (dose: 250.0 mg/kg/injection, schedule: Q01DX001 (ip), vehicle: methylcellulose (MC)): 178 % of control; T/C (dose: 250.0 mg/kg/injection, schedule: Q01DX015 (ip), vehicle: methylcellulose (MC)): 160 % of control; T/C (dose: 750.0 mg/kg/injection, schedule: Q01DX001 (ip), vehicle: methylcellulose (MC)): 243 % of control; T/C (dose: 1500.0 mg/kg/injection, schedule: Q01DX001 (ip), vehicle: methylcellulose (MC)): 202 % of control and 239 % of control and 253 % of control
